The source of these data is PubChem BioAssay AID2305 (GlaxoSmithKline (GSK), 2010).

In this test the test system is P. falciparum 3D7 growth, pLDH absorbance. The test can be described thus: blood-stage malaria parasite growth potency – strain 3D7, dose response (AID 2305).
As to `COc1cc2nccc(Nc3cc(C)cc(O)c3)c2cc1OC`, the IC50 is 910 nM.
For `CCn1ccc2c(N3CCCS3(=O)=O)cc(C(=O)N[C@@H](Cc3ccccc3)[C@H](O)CNC3CCCCC3)cc21`, the half-inhibitory concentration (IC50) stood at 140 nM.
The same measure for `CC(=O)Oc1cc(OCc2ccccc2)c(OC(C)=O)c(OCc2ccccc2)c1`: 410 nM; for `O=C(/C=C/c1ccc(Cl)c(Cl)c1)NC1CCC(CN2CCC(c3nc4ccccc4s3)CC2)CC1` (stereo unspecified): 1020 nM; for `CNCc1ccc(-c2cccc(CNCc3ccc(-c4ccccc4)cc3)c2)c(C(=O)OC)c1`: 980 nM.
In the case of `Cc1nnsc1C(=O)Nc1ccc(-c2cccc(-c3nc4ccc(C(F)(F)F)cc4[nH]3)c2)cc1` it was 840 nM; in that of `COc1ccccc1C(=O)Nc1ccc(Nc2nc(C)cc(N3CCOCC3)n2)cc1`, 530 nM; in that of `CC(C)CNCc1cccc(-c2cccc(CN(CCN(C)C)C(=O)NCCc3ccccc3)c2)c1`, 690 nM.
In turn, `CCCCNc1cc(NCCCC)c2c(n1)[nH]c1ccccc12` had an IC50 of 570 nM.
The same measure for `O=C(NCc1ccc(F)cc1)Nc1ccc(-c2cccc(-c3nc4ccc(F)cc4[nH]3)c2)cc1`: 1120 nM.
The same measure for `COc1ccc(NC(=O)NC2CCN(c3ccnc4cc(Cl)ccc34)CC2)cc1`: 730 nM; for `COc1cc(SC)c(Br)cc1-c1nc2ccncc2[nH]1`: 1100 nM; for `NC(=O)c1cccc(Nc2nccc(Nc3ccc(Oc4cccc(Cl)c4)c(Cl)c3)n2)c1`: 1280 nM.
`Cc1cc2ccc(-c3cccc(CN)c3)cc2nc1N` gave an IC50 of 760 nM.
The same measure for `C#CCN(Cc1cc2c(=O)[nH]c(N)nc2cc1C)c1ccc(C(=O)N[C@@H](CCC(=O)O)C(=O)O)cc1`: 630 nM.
The same measure for `COc1cccc(C=CC(=O)N(CCN)Cc2ccccc2)c1`: 820 nM.
In the case of `OC1CCCN(Cc2ccc(-c3cccc(-c4nc5ccc(F)cc5[nH]4)c3)cc2)C1` (stereo unspecified) it was 870 nM.
Molecule `COc1ccc(Cn2cncc2CN(CCC(C)C)C(=O)c2ccc(Cl)nc2Cl)cc1` returned an IC50 of 1040 nM.
The same measure for `O=C(Nc1cccc(-c2nn3ccccc3c2-c2ccnc(Nc3ccc(NCCCN4CCOCC4)c(F)c3)n2)c1)c1c(F)cccc1F`: 260 nM; for `CCOC(=O)CNC(=O)c1cc(=O)c2ccccc2o1`: 210 nM; for `Fc1ccc2nc(-c3cccc(-c4cccc(CNCCN5CCNCC5)c4)c3)[nH]c2c1`: 840 nM.
Molecule `Cc1[nH]c(C)c(-c2ccc(OCc3cccc(C(F)(F)F)c3)nc2)c(=O)c1Br` had an IC50 of 40 nM.
In the case of `COc1ccc(CCNC(=O)c2cc3c(=O)n4cccc(C)c4nc3n(C)c2=N)cc1` it was 760 nM; in that of `NC(N)=NN=CC(=O)Nc1ccc(Cl)c(C(F)(F)F)c1`, 890 nM.
On to `COc1ccc(C(=O)NC(Nc2ccc([N+](=O)[O-])cc2)C(Cl)(Cl)Cl)cc1` (stereo unspecified), for which the 50% inhibitory concentration (IC50) stood at 1070 nM.
In the case of `O=C(Nc1ccc(C(F)(F)F)cc1)Nc1cccc([N+](=O)[O-])c1` it was 870 nM.
In the case of `COc1cc2ncnc(Nc3ccc(OCc4ccccc4Br)c(Cl)c3)c2cc1OC` it was 1280 nM.
`Cc1cccc2[nH]c(-c3cccc(-c4ccc(CNCCNC(=O)c5ccnn5C)cc4)c3)nc12` registered a half-inhibitory concentration (IC50) of 170 nM.
The same measure for `Cc1cc(C)c2c(c1)C(=NO)CCN2`: 940 nM; for `Oc1ccc(CCNc2nc(NCc3ccccc3Oc3ccc(C(F)(F)F)cc3)nc(N3CCNCC3)n2)cc1`: 1160 nM; for `CC(C)CCNC(=O)C1Cc2c([nH]c3ccc(Br)cc23)C2(CCN(CCc3ccccc3)CC2)N1` (stereo unspecified): 690 nM.
In the case of `CCCc1cc(OC)c(C[C@H]2c3cc(O)c(Cl)cc3CCN2C)cc1OC` it was 580 nM; in that of `Nc1cc(C(F)(F)F)ccc1Cl`, 740 nM.
The same measure for `CC(C)c1ccc(N2CCN(CCCCNC(=O)c3ccc(NC(=O)c4cc(Cl)cc(Cl)c4)cc3)CC2)cc1`: 160 nM; for `COc1cc(C(=O)N2COCC(CCCN3CCC(N4CCCC4)CC3)(c3ccc(Cl)c(Cl)c3)C2)cc(OC)c1OC` (stereo unspecified): 780 nM.
Turning to `CCOC(=O)C(C(C)=O)C(c1ccccc1)C(C(C)=O)C(=O)OCC` (stereo unspecified), the IC50 stood at 750 nM. This IC50 and that of the molecule before are within 1.5-fold of each other.
